# Reference: patent publication US11970474B2, “Substituted benzodiazoles and use thereof in therapy” (THOMAS HELLEDAYS STIFTELSE FÖR MEDICINSK FORSKNING, priority 2018, dated 2024)
# Biological target: OGG1 (Homo sapiens (Human), UniProt O15527)
# Assay: In vitro OGG1 activity assay
# Format: biochemical
# Details: 800 pM OGG1 enzyme, 2 nM human APEX1, 10 nM 8-oxoA:C substrate
# Description: Method 1: In Vitro OGG1 Activity Assay OGG1 activity is assayed by measuring the increase in fluorescence from a duplex oligonucleotide containing an OGG1 substrate and a fluorophore in close proximity that are quenched by a quencher on the complementary strand. […] OGG1 activity releases the substrate base from DNA by cleaving the N-glycosidic bond between base and deoxyribose. The resulting apurinic site is cleaved by an excessive amount APEX1 activity which cause the duplex to melt, which in turn cause the fluorophore to become unquenched. Compounds to be tested are dissolved in DMSO and nano-dispensed directly into black 384-well plates, followed by transfer of enzyme and substrate solutions. […] The fluorescent signal is recorded in a plate reader equipped with suitable filters to register fluorescein fluorescence.
# Sequence of OGG1 (O15527 whole entry): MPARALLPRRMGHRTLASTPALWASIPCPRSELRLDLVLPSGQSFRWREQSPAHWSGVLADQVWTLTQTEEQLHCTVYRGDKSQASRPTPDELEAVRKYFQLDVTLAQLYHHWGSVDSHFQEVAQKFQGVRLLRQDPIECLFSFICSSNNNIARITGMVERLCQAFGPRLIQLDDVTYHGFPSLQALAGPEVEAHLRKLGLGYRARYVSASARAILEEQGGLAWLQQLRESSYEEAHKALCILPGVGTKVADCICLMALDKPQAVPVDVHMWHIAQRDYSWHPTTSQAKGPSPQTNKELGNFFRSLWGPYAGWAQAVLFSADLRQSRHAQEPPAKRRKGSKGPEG
row,Structure (SMILES),IC50 [µM]
1,"COc1ccc(NC(=O)N2CCC(n3c(=O)[nH]c4c(N)cccc43)CC2)cc1Cl [Example 174, 4-(4-Amino-2-oxo-2,3-dihydro-1H-1,3-benzodiazol-1-yl)-N-(3-chloro-4-methoxyphenyl)piperidine-1-carboxamide]",2.54
2,"CCCNc1cccc2c1[nH]c(=O)n2C1CCN(C(=O)Nc2ccc(OC)c(Cl)c2)CC1 [Example 175, N-(3-Chloro-4-methoxyphenyl)-4-[2-oxo-4-(propylamino)-2,3-dihydro-1H-1,3-benzodiazol-1-yl]piperidine-1-carboxamide]",2.62
3,"COc1ccc(NC(=O)N2CCC(n3c(=O)[nH]c4c(SC)cccc43)CC2)cc1Cl [Example 176, N-(3-Chloro-4-methoxyphenyl)-4-[4-(methylsulfanyl)-2-oxo-2,3-dihydro-1H-1,3-benzodiazol-1-yl]piperidine-1-carboxamide]",1.08
4,"COc1ccc(NC(=O)N2CCC(n3c(=O)[nH]c4cc(C)ccc43)CC2)cc1Cl [Example 179, N-(3-Chloro-4-methoxyphenyl)-4-(5-methyl-2-oxo-2,3-dihydro-1H-1,3-benzodiazol-1-yl)piperidine-1-carboxamide]",1.57
5,"COc1ccc(NC(=O)N2CCC(n3c(=O)[nH]c4c(C)ccnc43)CC2)cc1Cl [Example 180, N-(3-Chloro-4-methoxyphenyl)-4-{7-methyl-2-oxo-1H,2H,3H-imidazo[4,5-b]pyridin-3-yl}piperidine-1-carboxamide]",8.89
6,"COc1ccc(NC(=O)N2CCC(n3c(=O)[nH]c4cc(C)cnc43)CC2)cc1Cl [Example 181, N-(3-Chloro-4-methoxyphenyl)-4-{6-methyl-2-oxo-1H,2H,3H-imidazo[4,5-b]pyridin-3-yl}piperidine-1-carboxamide]",7.09
7,"O=c1[nH]c2c(Br)cccc2n1[C@H]1CC[C@@H](C(=O)Nc2cccc3cn[nH]c23)CC1 [Example 186, Cis-4-(4-bromo-2-oxo-2,3-dihydro-1H-1,3-benzodiazol-1-yl)-N-(1H-indazol-7-yl)cyclohexane-1-carboxamide]",2.03
8,"O=c1[nH]c2c(Br)cccc2n1[C@H]1CC[C@@H](C(=O)Nc2cncc(Cl)c2)CC1 [Example 188, Cis-4-(4-bromo-2-oxo-2,3-dihydro-1H-1,3-benzodiazol-1-yl)-N-(5-chloropyridin-3-yl)cyclohexane-1-carboxamide]",4.63
9,"Cc1nc2ccc(NC(=O)[C@H]3CC[C@@H](n4c(=O)[nH]c5c(Br)cccc54)CC3)cc2o1 [Example 203, Cis-4-(4-bromo-2-oxo-2,3-dihydro-1H-1,3-benzodiazol-1-yl)-N-(2-methyl-1,3-benzoxazol-6-yl)cyclohexane-1-carboxamide]",6.27
10,"COc1ncc(NC(=O)[C@H]2CC[C@@H](n3c(=O)[nH]c4c(OC)cccc43)CC2)cc1C [Example 208, Cis-4-(4-methoxy-2-oxo-2,3-dihydro-1H-1,3-benzodiazol-1-yl)-N-(6-methoxy-5-methylpyridin-3-yl)cyclohexane-1-carboxamide]",0.115
11,"COc1ccc(NC(=O)[C@H]2CC[C@@H](n3c(=O)[nH]c4c(F)cccc43)CC2)cc1 [Example 211, Cis-4-(4-fluoro-2-oxo-2,3-dihydro-1H-1,3-benzodiazol-1-yl)-N-(4-methoxyphenyl)cyclohexane-1-carboxamide]",0.153
12,"COc1ncc(NC(=O)[C@H]2CC[C@@H](n3c(=O)[nH]c4c(F)cccc43)CC2)cc1C [Example 214, Cis-4-(4-fluoro-2-oxo-2,3-dihydro-1H-1,3-benzodiazol-1-yl)-N-(6-methoxy-5-methylpyridin-3-yl)cyclohexane-1-carboxamide]",0.556
13,"COc1ccc(NC(=O)[C@H]2CC[C@@H](n3c(=O)[nH]c4ccc(F)cc43)CC2)cc1 [Example 216, Cis-4-(6-fluoro-2-oxo-2,3-dihydro-1H-1,3-benzodiazol-1-yl)-N-(4-methoxyphenyl)cyclohexane-1-carboxamide]",8.13

# The remaining lines, values ahead:
row,IC50 [µM],Structure (SMILES)
1,2.42,"COc1ccc(NC(=O)N2CCC(n3c(=O)[nH]c4cc(F)ccc43)CC2)cc1Cl [Example 173, N-(3-Chloro-4-methoxyphenyl)-4-(5-fluoro-2-oxo-2,3-dihydro-1H-1,3-benzodiazol-1-yl)piperidine-1-carboxamide]"
2,5.02,"COc1ccc(NC(=O)N2CCC(n3c(=O)[nH]c4c(Br)cccc43)C(O)C2)cc1Cl (centres unmarked) [Example 177, 4-(4-Bromo-2-oxo-2,3-dihydro-1H-1,3-benzodiazol-1-yl)-N-(3-chloro-4-methoxyphenyl)-3-hydroxypiperidine-1-carboxamide]"
3,6.92,"COc1ccc(NC(=O)N2CCC(n3c(=O)[nH]c4cc(C#N)ccc43)CC2)cc1Cl [Example 178, N-(3-Chloro-4-methoxyphenyl)-4-(5-cyano-2-oxo-2,3-dihydro-1H-1,3-benzodiazol-1-yl)piperidine-1-carboxamide]"
4,4.79,"COc1ccc(NC(=O)N2CCC(n3c(=O)[nH]c4c(F)cccc43)CC2)cc1Cl [Example 182, N-(3-Chloro-4-methoxyphenyl)-4-(4-fluoro-2-oxo-2,3-dihydro-1H-1,3-benzodiazol-1-yl)piperidine-1-carboxamide]"
5,1.39,"O=c1[nH]c2c(Br)cccc2n1[C@H]1CC[C@@H](C(=O)Nc2cnc(Cl)c(Cl)c2)CC1 [Example 185, Cis-4-(4-bromo-2-oxo-2,3-dihydro-1H-1,3-benzodiazol-1-yl)-N-(5,6-dichloropyridin-3-yl)cyclohexane-1-carboxamide]"
6,1.76,"Cc1ccc(NC(=O)[C@H]2CC[C@@H](n3c(=O)[nH]c4c(Br)cccc43)CC2)nc1 [Example 189, Cis-4-(4-bromo-2-oxo-2,3-dihydro-1H-1,3-benzodiazol-1-yl)-N-(5-methylpyridin-2-yl)cyclohexane-1-carboxamide]"
7,0.467,"Cc1ccc(NC(=O)[C@H]2CC[C@@H](n3c(=O)[nH]c4c(Br)cccc43)CC2)cn1 [Example 190, Cis-4-(4-bromo-2-oxo-2,3-dihydro-1H-1,3-benzodiazol-1-yl)-N-(6-methylpyridin-3-yl)cyclohexane-1-carboxamide]"
8,1.38,"COc1cc(NC(=O)[C@H]2CC[C@@H](n3c(=O)[nH]c4c(Br)cccc43)CC2)cc(OC)c1OC [Example 193, Cis-4-(4-bromo-2-oxo-2,3-dihydro-1H-1,3-benzodiazol-1-yl)-N-(3,4,5-trimethoxyphenyl)cyclohexane-1-carboxamide]"
9,3.56,"Nc1cccc(NC(=O)[C@H]2CC[C@@H](n3c(=O)[nH]c4c(Br)cccc43)CC2)c1 [Example 195, Cis-N-(3-aminophenyl)-4-(4-bromo-2-oxo-2,3-dihydro-1H-1,3-benzodiazol-1-yl)cyclohexane-1-carboxamide]"
10,0.647,"O=c1[nH]c2c(Br)cccc2n1[C@H]1CC[C@@H](C(=O)Nc2cccc(O)c2)CC1 [Example 196, Cis-4-(4-bromo-2-oxo-2,3-dihydro-1H-1,3-benzodiazol-1-yl)-N-(3-hydroxyphenyl)cyclohexane-1-carboxamide]"
11,5.37,"CN(C)c1cccc(NC(=O)[C@H]2CC[C@@H](n3c(=O)[nH]c4c(Br)cccc43)CC2)c1 [Example 198, Cis-4-(4-bromo-2-oxo-2,3-dihydro-1H-1,3-benzodiazol-1-yl)-N-[3-(dimethylamino)phenyl]cyclohexane-1-carboxamide]"
12,0.631,"CN(C)c1ccc(NC(=O)[C@H]2CC[C@@H](n3c(=O)[nH]c4c(Br)cccc43)CC2)cc1 [Example 200, Cis-4-(4-bromo-2-oxo-2,3-dihydro-1H-1,3-benzodiazol-1-yl)-N-[4-(dimethylamino)phenyl]cyclohexane-1-carboxamide]"
13,0.0745,"COc1ccc(NC(=O)[C@H]2CC[C@@H](n3c(=O)[nH]c4c(OC)cccc43)CC2)cc1 [Example 205, Cis-4-(4-methoxy-2-oxo-2,3-dihydro-1H-1,3-benzodiazol-1-yl)-N-(4-methoxyphenyl)cyclohexane-1-carboxamide]"
14,0.0736,"COc1ccc(NC(=O)[C@H]2CC[C@@H](n3c(=O)[nH]c4c(OC)cccc43)CC2)cc1F [Example 207, Cis-N-(3-fluoro-4-methoxyphenyl)-4-(4-methoxy-2-oxo-2,3-dihydro-1H-1,3-benzodiazol-1-yl)cyclohexane-1-carboxamide]"
15,9.49,"COc1cc(NC(=O)N2CCC(n3c(=O)[nH]c4ccccc43)CC2)ccc1C [Example 210, N-(3-Methoxy-4-methylphenyl)-4-(2-oxo-2,3-dihydro-1H-1,3-benzodiazol-1-yl)piperidine-1-carboxamide]"
16,0.155,"COc1ccc(NC(=O)[C@H]2CC[C@@H](n3c(=O)[nH]c4c(F)cccc43)CC2)cc1F [Example 213, Cis-4-(4-fluoro-2-oxo-2,3-dihydro-1H-1,3-benzodiazol-1-yl)-N-(3-fluoro-4-methoxyphenyl)cyclohexane-1-carboxamide]"
17,0.58,"O=c1[nH]c2c(F)cccc2n1[C@H]1CC[C@@H](C(=O)Nc2ccc3cc[nH]c3c2)CC1 [Example 215, Cis-4-(4-fluoro-2-oxo-2,3-dihydro-1H-1,3-benzodiazol-1-yl)-N-(1H-indol-6-yl)cyclohexane-1-carboxamide]"
18,0.586,"COc1ccc(NC(=O)[C@H]2CC[C@@H](n3c(=O)[nH]c4ccc(F)cc43)CC2)cc1C [Example 217, Cis-4-(6-fluoro-2-oxo-2,3-dihydro-1H-1,3-benzodiazol-1-yl)-N-(4-methoxy-3-methylphenyl)cyclohexane-1-carboxamide]"
19,9.01,"COc1ccc(NC(=O)[C@H]2CC[C@@H](n3c(=O)[nH]c4ccc(F)cc43)CC2)cc1F [Example 218, Cis-4-(6-fluoro-2-oxo-2,3-dihydro-1H-1,3-benzodiazol-1-yl)-N-(3-fluoro-4-methoxyphenyl)cyclohexane-1-carboxamide]"
